The source made the active and inactive calls. No cut-off for these calls is given here.
Tests used:
[1] = molecular target: T1, Epidermal growth factor receptor (Homo sapiens, UniProt P00533, L858R/T790M); assay: Inhibition of EGFR T790M/L858R double mutant (unknown origin) preincubated for 60 mins followed by substrate addition and further incubated for 60 mins in presence of ATP by IMAP-FP assay
[2] = molecular target: T2, Epidermal growth factor receptor (Homo sapiens, UniProt P00533); assay: Inhibition of wild type EGFR (unknown origin) preincubated for 60 mins followed by substrate addition and further incubated for 60 mins in presence of ATP by IMAP-FP assay
[3] = molecular target: T1, Epidermal growth factor receptor; assay: Inhibition of EGF-induced phosphorylation of EGFR T790M/L858R double mutant in human NCI-H1975 cells preincubated for 120 mins followed by EGF stimulation and measured after 10 mins by ELISA; format: cell-based
[4] = molecular target: T2, Epidermal growth factor receptor; assay: Inhibition of EGF-induced phosphorylation of wild type EGFR in human NCI-H1975 cells preincubated for 120 mins followed by EGF stimulation and measured after 10 mins by ELISA; format: cell-based
Homo sapiens = species: Homo sapiens; assay: Selectivity ratio of EC50 for inhibition of EGF-induced phosphorylation of wild type EGFR in human NCI-H1975 cells to EC50 for inhibition of EGF-induced phosphorylation of EGFR T790M/L858R double mutant in human NCI-H1975 cells preincubated for 120 mins followed by EGF stimulation and measured after 10 mins by ELISA; format: cell-based; settings: time 130.0 min
[5] = molecular target: Serine/threonine-protein kinase B-raf (Homo sapiens) (UniProt P15056); assay: Inhibition of BRAF (unknown origin) at 1 uM measured after 1 hr relative to control
[6] = molecular target: T3, Serine/threonine-protein kinase BRSK1 (Homo sapiens) (UniProt Q8TDC3); assay: Inhibition of BRSK1 (unknown origin) at 1 uM measured after 1 hr relative to control
T3 sequence (whole entry): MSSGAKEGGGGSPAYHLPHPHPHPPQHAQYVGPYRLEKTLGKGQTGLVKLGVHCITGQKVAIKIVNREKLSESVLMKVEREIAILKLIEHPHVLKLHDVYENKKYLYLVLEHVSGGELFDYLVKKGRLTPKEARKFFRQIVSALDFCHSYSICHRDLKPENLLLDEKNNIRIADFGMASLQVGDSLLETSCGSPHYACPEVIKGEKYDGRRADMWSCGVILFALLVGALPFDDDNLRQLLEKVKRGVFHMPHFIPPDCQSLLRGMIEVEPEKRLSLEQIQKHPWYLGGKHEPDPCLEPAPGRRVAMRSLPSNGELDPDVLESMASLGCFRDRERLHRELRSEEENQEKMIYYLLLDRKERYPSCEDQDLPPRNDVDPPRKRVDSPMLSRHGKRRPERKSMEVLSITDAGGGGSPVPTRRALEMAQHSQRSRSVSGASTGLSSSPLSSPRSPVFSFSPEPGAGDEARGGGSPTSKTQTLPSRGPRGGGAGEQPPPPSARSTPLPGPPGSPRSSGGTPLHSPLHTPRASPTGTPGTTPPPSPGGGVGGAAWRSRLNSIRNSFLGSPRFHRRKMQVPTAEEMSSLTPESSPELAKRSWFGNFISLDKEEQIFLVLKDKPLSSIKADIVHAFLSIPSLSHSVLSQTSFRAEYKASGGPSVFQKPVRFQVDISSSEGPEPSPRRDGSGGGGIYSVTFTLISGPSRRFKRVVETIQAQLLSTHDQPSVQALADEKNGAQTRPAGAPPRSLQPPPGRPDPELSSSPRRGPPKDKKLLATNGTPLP

[7] = molecular target: Cyclin-dependent kinase 1/cyclin B1 (Homo sapiens) (UniProt P06493+P14635); assay: Inhibition of cdk1/Cyclin B (unknown origin) at 1 uM measured after 1 hr relative to control; format: protein-complex assay
[8] = molecular target: Serine/threonine-protein kinase Chk2 (Homo sapiens) (UniProt O96017); assay: Inhibition of CHEK2 (unknown origin) at 1 uM measured after 1 hr relative to control
[9] = molecular target: Casein kinase I isoform gamma-2 (Homo sapiens) (UniProt P78368); assay: Inhibition of CSNK1G2 (unknown origin) at 1 uM measured after 1 hr relative to control
[10] = molecular target: Dual specificity tyrosine-phosphorylation-regulated kinase 1A (Homo sapiens) (UniProt Q13627); assay: Inhibition of DYRK1A (unknown origin) at 1 uM measured after 1 hr relative to control
[11] = molecular target: Receptor-type tyrosine-protein kinase FLT3 (Homo sapiens) (UniProt P36888); assay: Inhibition of FLT3 (unknown origin) at 1 uM measured after 1 hr relative to control
[12] = molecular target: Glycogen synthase kinase-3 beta (Homo sapiens) (UniProt P49841); assay: Inhibition of GSK3B (unknown origin) at 1 uM measured after 1 hr relative to control
[13] = molecular target: Insulin-like growth factor 1 receptor (Homo sapiens) (UniProt P08069); assay: Inhibition of IGF1R (unknown origin) at 1 uM measured after 1 hr relative to control
[14] = molecular target: Dual specificity mitogen-activated protein kinase kinase 1 (Homo sapiens) (UniProt Q02750); assay: Inhibition of MAP2K1 (unknown origin) at 1 uM measured after 1 hr relative to control
[15] = molecular target: Mitogen-activated protein kinase kinase kinase 9 (Homo sapiens) (UniProt P80192); assay: Inhibition of MAP3K9 (unknown origin) at 1 uM measured after 1 hr relative to control
[16] = molecular target: Mitogen-activated protein kinase kinase kinase kinase 4 (Homo sapiens) (UniProt O95819); assay: Inhibition of MAP4K4 (unknown origin) at 1 uM measured after 1 hr relative to control
[17] = molecular target: Mitogen-activated protein kinase 3 (Homo sapiens) (UniProt P27361); assay: Inhibition of MAPK3 (unknown origin) at 1 uM measured after 1 hr relative to control
[18] = molecular target: Mitogen-activated protein kinase 8 (Homo sapiens) (UniProt P45983); assay: Inhibition of MAPK8 (unknown origin) at 1 uM measured after 1 hr relative to control
[19] = molecular target: Serine/threonine-protein kinase PLK2 (Homo sapiens) (UniProt Q9NYY3); assay: Inhibition of PLK2 (unknown origin) at 1 uM measured after 1 hr relative to control
[20] = molecular target: Protein kinase C alpha type (Homo sapiens) (UniProt P17252); assay: Inhibition of PRKCA (unknown origin) at 1 uM measured after 1 hr relative to control
[21] = Oral bioavailability in mouse; format: ADME, organism-based; settings: in vivo
NCI-H1975 [22] = assay: Antitumor activity against human NCI-H1975 cells xenografted in mouse model assessed as tumor growth inhibition at 30 mg/kg, po administered bid measured after 11 days relative to control; format: functional; settings: 264 h, time 11 day, read-out: TGI
[23] = Toxicity in mouse xenografted with human NCI-H1975 cells assessed as change in body weight at 30 mg/kg, po administered bid measured after 11 days; format: organism-based; settings: in vivo, 264 h, time 11 day
NCI-H1975 [24] = assay: Antitumor activity against human NCI-H1975 cells xenografted in mouse model assessed as tumor growth inhibition at 30 mg/kg, po administered qd measured after 11 days; format: functional, organism-based; settings: time 11.0 day
[25] = Inhibition of EGF-induced phosphorylation of EGFR T790M/L858R double mutant in human NCI-H1975 cells preincubated for 2 hrs followed by EGF stimulation and measured after 10 mins by ELISA; format: cell-based

Mitogen-activated protein kinase 3 (Homo sapiens), sequence (P27361 whole entry): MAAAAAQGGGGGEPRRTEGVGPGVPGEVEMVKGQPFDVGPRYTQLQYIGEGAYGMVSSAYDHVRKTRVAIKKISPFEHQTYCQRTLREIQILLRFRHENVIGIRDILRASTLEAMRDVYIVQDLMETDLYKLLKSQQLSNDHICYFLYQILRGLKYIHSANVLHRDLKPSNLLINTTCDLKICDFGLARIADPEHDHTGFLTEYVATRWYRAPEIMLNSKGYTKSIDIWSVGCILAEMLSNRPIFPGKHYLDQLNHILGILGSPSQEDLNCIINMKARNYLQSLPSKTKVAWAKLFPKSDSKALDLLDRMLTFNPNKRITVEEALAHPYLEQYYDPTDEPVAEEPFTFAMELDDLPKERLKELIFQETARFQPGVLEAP
Insulin-like growth factor 1 receptor (Homo sapiens), sequence (P08069 31-736 limits assumed): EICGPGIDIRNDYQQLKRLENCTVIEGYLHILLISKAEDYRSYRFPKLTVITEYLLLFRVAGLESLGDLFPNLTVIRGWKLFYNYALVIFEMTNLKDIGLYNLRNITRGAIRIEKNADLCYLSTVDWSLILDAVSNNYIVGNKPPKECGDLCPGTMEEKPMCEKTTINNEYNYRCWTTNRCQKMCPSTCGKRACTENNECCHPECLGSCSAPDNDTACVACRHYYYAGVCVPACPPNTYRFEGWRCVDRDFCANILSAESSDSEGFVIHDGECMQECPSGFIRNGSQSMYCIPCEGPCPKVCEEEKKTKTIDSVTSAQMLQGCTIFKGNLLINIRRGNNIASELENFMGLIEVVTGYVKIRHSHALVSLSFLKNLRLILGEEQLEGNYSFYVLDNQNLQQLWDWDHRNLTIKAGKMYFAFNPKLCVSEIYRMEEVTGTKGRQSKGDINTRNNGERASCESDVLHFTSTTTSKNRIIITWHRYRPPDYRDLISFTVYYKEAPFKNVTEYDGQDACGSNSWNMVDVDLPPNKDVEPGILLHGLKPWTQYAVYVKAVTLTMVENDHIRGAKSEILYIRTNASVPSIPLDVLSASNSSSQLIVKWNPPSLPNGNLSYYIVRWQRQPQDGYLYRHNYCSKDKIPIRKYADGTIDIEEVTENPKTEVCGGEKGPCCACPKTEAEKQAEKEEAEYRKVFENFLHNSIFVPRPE
Insulin-like growth factor 1 receptor (Homo sapiens), sequence (P08069 741-1367 limits assumed): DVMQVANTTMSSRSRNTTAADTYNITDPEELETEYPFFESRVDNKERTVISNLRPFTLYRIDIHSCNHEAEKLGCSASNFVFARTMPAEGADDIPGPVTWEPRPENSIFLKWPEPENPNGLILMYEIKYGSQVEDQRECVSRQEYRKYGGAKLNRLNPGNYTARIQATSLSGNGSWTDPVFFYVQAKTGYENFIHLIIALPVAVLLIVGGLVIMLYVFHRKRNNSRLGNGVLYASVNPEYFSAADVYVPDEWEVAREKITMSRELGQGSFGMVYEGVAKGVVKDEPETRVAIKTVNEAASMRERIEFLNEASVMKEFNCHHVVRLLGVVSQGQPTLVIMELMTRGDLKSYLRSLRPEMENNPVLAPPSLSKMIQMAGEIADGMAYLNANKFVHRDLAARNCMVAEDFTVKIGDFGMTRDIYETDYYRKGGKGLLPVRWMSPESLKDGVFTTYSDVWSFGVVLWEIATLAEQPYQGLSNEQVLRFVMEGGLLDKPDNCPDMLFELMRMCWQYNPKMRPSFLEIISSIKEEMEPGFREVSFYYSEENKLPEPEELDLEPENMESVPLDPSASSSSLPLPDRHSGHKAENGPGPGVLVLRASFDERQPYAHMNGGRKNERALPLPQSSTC
T2 sequence (P00533 whole entry): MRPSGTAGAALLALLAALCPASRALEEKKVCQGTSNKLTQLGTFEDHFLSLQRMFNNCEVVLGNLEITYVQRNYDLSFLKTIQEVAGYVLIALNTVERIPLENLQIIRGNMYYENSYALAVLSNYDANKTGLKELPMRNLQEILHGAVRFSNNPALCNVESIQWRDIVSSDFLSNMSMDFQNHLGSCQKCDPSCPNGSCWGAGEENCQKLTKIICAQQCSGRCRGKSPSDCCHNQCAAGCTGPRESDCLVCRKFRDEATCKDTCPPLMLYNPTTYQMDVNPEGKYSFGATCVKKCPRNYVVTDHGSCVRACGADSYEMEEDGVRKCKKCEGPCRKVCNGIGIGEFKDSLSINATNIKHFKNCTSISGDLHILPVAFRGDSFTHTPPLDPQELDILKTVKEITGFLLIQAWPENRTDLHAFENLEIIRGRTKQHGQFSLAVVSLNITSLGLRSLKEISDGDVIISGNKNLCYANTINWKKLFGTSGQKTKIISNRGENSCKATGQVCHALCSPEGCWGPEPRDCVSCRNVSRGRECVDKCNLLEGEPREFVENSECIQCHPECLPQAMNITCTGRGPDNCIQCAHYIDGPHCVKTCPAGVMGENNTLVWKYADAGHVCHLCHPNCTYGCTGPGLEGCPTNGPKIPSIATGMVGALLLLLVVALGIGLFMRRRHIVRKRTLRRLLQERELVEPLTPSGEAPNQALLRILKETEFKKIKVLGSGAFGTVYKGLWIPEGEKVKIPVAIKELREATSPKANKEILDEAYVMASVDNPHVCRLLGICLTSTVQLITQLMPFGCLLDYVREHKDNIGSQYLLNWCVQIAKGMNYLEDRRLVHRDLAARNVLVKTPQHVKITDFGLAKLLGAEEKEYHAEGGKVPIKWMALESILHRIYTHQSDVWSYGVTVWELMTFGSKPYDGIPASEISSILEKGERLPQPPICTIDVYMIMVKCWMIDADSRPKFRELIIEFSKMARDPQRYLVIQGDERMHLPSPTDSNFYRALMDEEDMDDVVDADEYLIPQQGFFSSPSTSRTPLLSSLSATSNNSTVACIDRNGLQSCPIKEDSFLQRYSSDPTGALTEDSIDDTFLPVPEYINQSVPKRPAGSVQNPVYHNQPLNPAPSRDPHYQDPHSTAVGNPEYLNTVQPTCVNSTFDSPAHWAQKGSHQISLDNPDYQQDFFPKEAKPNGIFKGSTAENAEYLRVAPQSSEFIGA
Serine/threonine-protein kinase B-raf (Homo sapiens), sequence (P15056 whole entry): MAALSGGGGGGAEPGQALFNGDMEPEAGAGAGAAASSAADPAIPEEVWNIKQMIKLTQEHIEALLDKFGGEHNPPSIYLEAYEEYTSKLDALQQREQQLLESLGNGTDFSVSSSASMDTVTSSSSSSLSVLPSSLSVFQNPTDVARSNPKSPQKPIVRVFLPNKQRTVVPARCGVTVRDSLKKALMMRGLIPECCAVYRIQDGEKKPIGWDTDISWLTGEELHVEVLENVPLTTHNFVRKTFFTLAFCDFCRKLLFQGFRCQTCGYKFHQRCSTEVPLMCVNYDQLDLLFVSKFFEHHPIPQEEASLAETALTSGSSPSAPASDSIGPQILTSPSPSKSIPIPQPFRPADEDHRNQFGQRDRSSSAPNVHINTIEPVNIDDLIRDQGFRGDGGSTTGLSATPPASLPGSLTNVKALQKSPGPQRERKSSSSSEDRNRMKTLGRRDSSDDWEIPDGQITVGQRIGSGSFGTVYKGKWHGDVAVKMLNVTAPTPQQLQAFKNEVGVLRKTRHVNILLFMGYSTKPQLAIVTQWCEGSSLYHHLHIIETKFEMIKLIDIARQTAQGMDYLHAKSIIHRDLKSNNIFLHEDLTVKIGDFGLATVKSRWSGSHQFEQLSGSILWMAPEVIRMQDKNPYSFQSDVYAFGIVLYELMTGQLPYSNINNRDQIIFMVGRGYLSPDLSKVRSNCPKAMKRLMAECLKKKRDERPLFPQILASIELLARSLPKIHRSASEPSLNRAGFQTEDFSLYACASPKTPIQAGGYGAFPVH
Casein kinase I isoform gamma-2 (Homo sapiens), sequence (P78368 whole entry, looked up, canonical isoform): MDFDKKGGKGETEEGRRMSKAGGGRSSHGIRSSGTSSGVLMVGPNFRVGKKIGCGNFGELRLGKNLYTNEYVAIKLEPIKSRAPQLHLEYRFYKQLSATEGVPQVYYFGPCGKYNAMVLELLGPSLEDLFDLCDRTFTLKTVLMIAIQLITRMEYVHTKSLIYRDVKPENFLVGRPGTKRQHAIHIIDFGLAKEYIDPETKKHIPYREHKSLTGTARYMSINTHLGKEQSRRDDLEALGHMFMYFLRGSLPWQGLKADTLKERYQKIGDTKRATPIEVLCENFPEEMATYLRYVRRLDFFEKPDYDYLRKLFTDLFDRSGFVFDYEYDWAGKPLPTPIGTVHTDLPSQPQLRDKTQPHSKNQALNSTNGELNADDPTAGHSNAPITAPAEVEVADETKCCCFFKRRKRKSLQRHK
Glycogen synthase kinase-3 beta (Homo sapiens), sequence (P49841 whole entry, looked up): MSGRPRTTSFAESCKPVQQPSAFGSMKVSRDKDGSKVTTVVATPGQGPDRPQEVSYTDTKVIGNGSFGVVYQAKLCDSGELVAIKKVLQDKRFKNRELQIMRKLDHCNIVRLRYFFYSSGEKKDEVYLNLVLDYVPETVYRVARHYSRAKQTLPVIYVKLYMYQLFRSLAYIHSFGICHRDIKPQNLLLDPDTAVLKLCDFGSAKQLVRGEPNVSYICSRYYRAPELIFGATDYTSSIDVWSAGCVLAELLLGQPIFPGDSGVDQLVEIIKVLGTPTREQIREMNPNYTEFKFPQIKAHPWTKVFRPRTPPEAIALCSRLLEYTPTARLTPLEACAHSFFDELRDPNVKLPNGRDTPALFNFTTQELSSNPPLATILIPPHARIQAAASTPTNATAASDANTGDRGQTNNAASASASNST
Mitogen-activated protein kinase 8 (Homo sapiens), sequence (P45983 whole entry): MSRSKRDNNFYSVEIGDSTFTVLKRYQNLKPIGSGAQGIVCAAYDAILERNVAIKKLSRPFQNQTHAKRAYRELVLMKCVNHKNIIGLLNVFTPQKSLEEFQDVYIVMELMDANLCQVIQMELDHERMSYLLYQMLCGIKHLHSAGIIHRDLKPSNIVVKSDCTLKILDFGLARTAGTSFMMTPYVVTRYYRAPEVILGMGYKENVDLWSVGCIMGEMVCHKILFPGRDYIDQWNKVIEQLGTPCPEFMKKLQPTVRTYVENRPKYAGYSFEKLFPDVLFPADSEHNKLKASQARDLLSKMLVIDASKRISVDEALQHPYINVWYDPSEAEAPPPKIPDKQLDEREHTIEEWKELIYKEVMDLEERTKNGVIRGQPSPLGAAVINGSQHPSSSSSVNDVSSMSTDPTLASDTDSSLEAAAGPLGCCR

| SMILES | IC50 [1] [nM] | IC50 [2] [nM] | EC50 [3] [nM] | EC50 [4] [nM] | inhibition [5] [%] | inhibition [6] [%] | inhibition [7] [%] | inhibition [8] [%] | inhibition [9] [%] | inhibition [10] [%] | inhibition [11] [%] | inhibition [12] [%] | inhibition [13] [%] | inhibition [14] [%] | inhibition [15] [%] | inhibition [16] [%] | inhibition [17] [%] | inhibition [18] [%] | inhibition [19] [%] | inhibition [20] [%] | further results |
| --- | --- | --- | --- | --- | --- | --- | --- | --- | --- | --- | --- | --- | --- | --- | --- | --- | --- | --- | --- | --- | --- |
| COc1ccccc1Nc1nccc(-c2cc3c([nH]2)C2(CCN(C(=O)C#CN(C)C)CC2)CNC3=O)n1 | 2.8 | 5.3 | 2180 | – | – | – | – | – | – | – | – | – | – | – | – | – | – | – | – | – | – |
| CC#CC(=O)Nc1cccc(-c2nccc(-c3cc4c([nH]3)C3(CCNCC3)CNC4=O)n2)c1 | 499 | – | – | – | – | – | – | – | – | – | – | – | – | – | – | – | – | – | – | – | – |
| C=CC(=O)N1CCC2(CC1)CNC(=O)c1cc(-c3ccnc(-c4cccc(OC)c4)n3)[nH]c12 | 9.6 | 32 | 2550 | – | – | – | – | – | – | – | – | – | – | – | – | – | – | – | – | – | – |
| C=CC(=O)N1CCC2(CC1)CNC(=O)c1cc(-c3ccnc(-c4ccc5c(c4)OCO5)n3)[nH]c12 | 6.5 | 43 | – | – | – | – | – | – | – | – | – | – | – | – | – | – | – | – | – | – | – |
| C=CC(=O)N1CCC2(CC1)CNC(=O)c1cc(-c3nc(Nc4ccccc4OC)ncc3Cl)[nH]c12 | 0.8 | 0.9 | 3.1 | 277 | – | – | – | – | – | – | – | – | – | – | – | – | – | – | – | – | Ratio EC50 (Homo sapiens): 89 |
| C=CC(=O)N1CCC2(CC1)CNC(=O)c1cc(-c3ccnc(Nc4ccccc4OC)c3)[nH]c12 | 37 | 192 | > 10000 | – | 75 | 18 | 12 | 100 | 79 | 46 | 16 | 34 | 0 | 80 | 1 | 80 | 81 | 87 | 7 | 14 | – |
| C=CC(=O)N1CCC2(CC1)CNC(=O)c1cc(-c3ccnc(Nc4ccccc4OC)n3)[nH]c12 | 0.9 | 0.4 | 40 | 308 | 83 | 18 | 71 | 99 | 81 | 73 | 85 | 85 | 3 | 72 | 75 | 91 | 69 | 80 | 79 | 30 | Ratio EC50 (Homo sapiens): 7.7; bioavailability [21]: 3.2% |
| C=CC(=O)N1CCC2(CC1)CNC(=O)c1cc(-c3nc(Nc4ccccc4OC)ncc3C)[nH]c12 | 1.2 | 1.4 | 12 | 165 | 98 | 0 | 89 | 96 | 92 | 98 | 100 | 99 | 69 | 98 | 98 | 89 | 90 | 85 | 86 | 61 | Ratio EC50 (Homo sapiens): 14; bioavailability [21]: 87% |
| C=CC(=O)N1CCC2(CC1)CNC(=O)c1cc(-c3ccnc(Nc4ccccc4OC(C)C)n3)[nH]c12 | 1.3 | 1.2 | 8.8 | 562 | 34 | 4 | 8 | 100 | 88 | 70 | 22 | 88 | 14 | 48 | 38 | 32 | 40 | 50 | 12 | 5 | Ratio EC50 (Homo sapiens): 64; bioavailability [21]: 11%; inhibition in vivo at 30 mg/kg (NCI-H1975 [22]): 60%; Activity [23]: Non-Toxic; Activity (NCI-H1975 [24]): Active |
| C=CC(=O)Nc1cc(Nc2nccc(-c3cn(C)c4ccccc34)n2)c(OC)cc1N(C)CCN(C)C [OSIMERTINIB] | – | – | – | – | 6 | 7 | 5 | 0 | 5 | 0 | 57 | 12 | 31 | 0 | 71 | 78 | 0 | 0 | 0 | 4 | bioavailability [21]: 45%; EC50 [25]: 15 nM |

— ChEMBL document CHEMBL5029169, “Discovery and optimization of covalent EGFR T790M/L858R mutant inhibitors” (Bioorg Med Chem Lett, 2021)
